“Also recorded” adds a separate entry of the source.
Columns and labels:
[1] = UVB permeation of foot-pad skin (sunscreen test); design: species or system mouse; settings: topically applied; GSK205 5 mM
Protocol: The UV LED was powered with 20 mA of current, resulting in 500 μW of optical power in a circular focal spot 1.5 mm in diameter, with 70% of the total flux in a 0.5 mm beam radius. The UV optical power transmitted through the sample was detected by a Hamamatsu S127-66BR UV detector, and the output of the photodetector was measured using a Keithley 236 source measure unit. Next, the foot-pad epidermis of a mouse was measured for UV transmission by placing it on a quartz coverslip and exposure to the UV beam. The vehicle-control group was treated with the alcohol and glycerol solution only. Another control group consisted of a commercially-available SPF100 preparation sunscreen in form of a cream, which was applied similar to the vehicle-control. The data for the GSK205 and sunscreen was normalized to this control data.
To validate these finding, we tested UVB absorption in GSK205-treated paw-pad skin, and whether GSK205 thus functions as sunscreen.

[2] = tested on: ET1 secretion by 1° MK; experiment: ET1 secretion by non-stimulated 1° MK (ELISA of supernatant); type: cell-based, mouse
Protocol: FIG. 8: Central role for KC TRPV4 in UVB-evoked Ca^++ signaling and nocifensive behavior—ET1-related supplementary findings. (A) Augmentation of GSK101-evoked Ca^++ signaling by ET1. Shown are averaged Ca^++ measurements (fura-2) in response to 5 nM GSK101. […] (B) ET1 secretion by non-stimulated 1° MK depends on TRPV4 and PLC. Shown are relative ET1 concentrations (determined by ELISA, pg/mL; vehicle-treated and WT control normalized to 100) in supernatant of non-stimulated 1° MK. Note the clear dependence on TRPV4, as indicated by a 50% reduction in Trpv4^−/− 1° MK. […] In addition, PLC-inhibitor robustly affects ET1 secretion in WT and Trpv4^−/− 1° MK. (C) ET1 expression by UVB-exposed 1° MK depends on TRPV4 and PLC—immunocytochemistry. Shown is specific ET1 immunolabeling in 1° MK, exposed to UVB using the UVB-LEDs, as for Ca^++ imaging. Use of the UVB-LED device precluded application of a ET1 ELISA, only irradiated cells could be examined. […] (D) ET1 expression by UVB-exposed 1° MK depends on TRPV4 and PLC—quantification of immunocytochemistry.
We tested whether UVB causes ET1 upregulation in a TRPV4-dependent manner. Given the exquisite wave-length dependence of ET1 expression in 1° MKs, we resorted to the UVB-LED device as for Ca++ imaging (FIG. 6A and FIG. 2A-D). […] Consistent with its effects on UVB-evoked Ca++ transients, PLC-inhibitor U73122 also dampened ET1 expression. […] This leads to TRPV4-dependent Ca++ signaling, which in turn amplifies ET1 signaling in a paracrine/autocrine fashion.

[3] = tested on: primary mouse epidermal keratinocytes (1° MK); experiment: UVB-evoked Ca++ signaling in primary mouse keratinocytes (fluo-4 imaging); type: cell-based
Protocol: Ca++ imaging of 1° MK was conducted following routine procedures. For UVB stimulation, a customized device was built. The system comprised a printed circuit board for electrical interconnects and mechanical support and an ultraviolet light-emitting diode (UV LED).
The operating wavelength was 295 nm (FIG. 2A), with a full-width half-max of 12 nm. The optical power was 500 mW. The focal point was aimed at the plane of the upper surface of the quartz coverslip, which was used to minimize UV absorption along the optical path towards the cells (FIG. 2A-C). The optical intensity at the focal point was estimated to be 150 mW/mm^2.
Ca++ imaging of mouse 1° MK in response to chemical activation of TRPV4 was conducted after loading with 2 μM fura2-AM, following a ratiometric Ca2+ imaging protocol with 340/380 nm […] for dual excitation. Ratios of emissions were acquired at 0.5 Hz. ΔR/R0 was determined as the fraction of the increase of a given ratio over baseline ratio, divided by baseline ratio. For stimulation of cells with UVB, where fura-2 was not suitable because of the proximity of stimulation with 340/380 nm and 295 nm, 2 μM fluo4-AM was used instead. Ca++ imaging was carried out at 488 nm excitation, acquisition of emissions at 0.5 Hz, expressed as ΔF/F0. In the custom-built UV optical system, UV LEDs were capped with a ball lens, a transparent optical window in the shape of a hemispherical lens (FIG. 2B). The LED output optical beam focused at 15-20 mm from the lens, with a spot diameter of approximately 1.5˜2.0 mm (FIG. 2C). […] The thermal equilibration stage was set for physiological temperature.
To further dissect the underlying mechanisms involved, we built a customized device for specific and narrow-band UVB stimulation of primary mouse epidermal keratinocytes (1° MK) cultured in vitro (FIG. 6A-B and FIG. 2A-D). This allowed use of the Ca++ sensitive dye, fluo-4, and assessment of 1° MK's Ca++ dynamics following UVB exposure (FIG. 6B). The elicited Ca++ signal was obliterated by a UV-refracting glass coverslip, underscoring the strict dependence of the calcium response on UVB (FIG. 6C and FIG. 2A).

Compound: CN(CCc1ccc(Nc2nc(-c3cccnc3)cs2)cc1)Cc1ccccc1 [GSK205]
- UVB permeation of paw-pad skin [1]: equal UVB permeation; also recorded: absence of a change in UVB permeation
- ET1 secretion by non-stimulated 1° MK [2]: significant down-regulation
- ET1-augmented UVB-evoked Ca++ signaling ([3]; UVB and ET1 co-exposure): greatly diminished
- UVB-evoked Ca++ signaling ([3]; fluo-4 ΔF/F0, GSK205 20 μM): very similar response to that of Trpv4−/− 1° MK; also recorded: strongly down-regulated; also recorded: significant attenuation

Reference: patent US11229628B2, “TRPA1 and TRPV4 inhibitors and methods of using the same for organ-specific inflammation and itch” (Duke University, priority 2015, dated 2022)
